Results as given in patent publication US10711004B2 (Genentech, Inc., priority 2018, dated 2020).
Where two headings read alike, the source gives them in different places.

Molecular target: human TRPA1 channel (Homo sapiens (Human), UniProt O75762)
Assay: hTRPA1 CHO Ca2+ FLIPR Tetra assay, block of cinnamaldehyde induced calcium influx
Assay type: cell-based
Conditions: CHO cells expressing TRPA1, Hill coefficient fixed to 1.5
Protocol: CHO cells expressing TRPA1 were plated into 384-well plates, incubated overnight at 37° C., and loaded with BD calcium indicator dye for 1 hr at 37° C. followed by 15 minutes at room temperature. The assay buffer was Hank's Balanced Salt Solution (HBSS) containing 20 mM HEPES (pH readjusted to 7.4) along with 0.02% BSA.
Following dye load and plate cool down, compounds were added to the cells using FLIPR Tetra. Plates were then incubated with compounds for 10 minutes or 90 minutes at room temperature prior to adding agonist. Following this incubation, about an EC50 concentration of cinnamaldehyde (75) was added to active the channels and block of cinnamaldehyde induced calcium influx was measured.
Fixing the Hill coefficient will generally reduce variability of the IC50 determination. The IC50 results were individually examined to make sure the MIN and MAX points were set correctly prior to validation of the results.

[1] = read-out: hTRPA1 IC50 (10 min), compounds incubated 10 minutes at room temperature before cinnamaldehyde agonist
[2] = compounds incubated 10 minutes at room temperature before cinnamaldehyde agonist

human TRPA1 channel, sequence (O75762 whole entry): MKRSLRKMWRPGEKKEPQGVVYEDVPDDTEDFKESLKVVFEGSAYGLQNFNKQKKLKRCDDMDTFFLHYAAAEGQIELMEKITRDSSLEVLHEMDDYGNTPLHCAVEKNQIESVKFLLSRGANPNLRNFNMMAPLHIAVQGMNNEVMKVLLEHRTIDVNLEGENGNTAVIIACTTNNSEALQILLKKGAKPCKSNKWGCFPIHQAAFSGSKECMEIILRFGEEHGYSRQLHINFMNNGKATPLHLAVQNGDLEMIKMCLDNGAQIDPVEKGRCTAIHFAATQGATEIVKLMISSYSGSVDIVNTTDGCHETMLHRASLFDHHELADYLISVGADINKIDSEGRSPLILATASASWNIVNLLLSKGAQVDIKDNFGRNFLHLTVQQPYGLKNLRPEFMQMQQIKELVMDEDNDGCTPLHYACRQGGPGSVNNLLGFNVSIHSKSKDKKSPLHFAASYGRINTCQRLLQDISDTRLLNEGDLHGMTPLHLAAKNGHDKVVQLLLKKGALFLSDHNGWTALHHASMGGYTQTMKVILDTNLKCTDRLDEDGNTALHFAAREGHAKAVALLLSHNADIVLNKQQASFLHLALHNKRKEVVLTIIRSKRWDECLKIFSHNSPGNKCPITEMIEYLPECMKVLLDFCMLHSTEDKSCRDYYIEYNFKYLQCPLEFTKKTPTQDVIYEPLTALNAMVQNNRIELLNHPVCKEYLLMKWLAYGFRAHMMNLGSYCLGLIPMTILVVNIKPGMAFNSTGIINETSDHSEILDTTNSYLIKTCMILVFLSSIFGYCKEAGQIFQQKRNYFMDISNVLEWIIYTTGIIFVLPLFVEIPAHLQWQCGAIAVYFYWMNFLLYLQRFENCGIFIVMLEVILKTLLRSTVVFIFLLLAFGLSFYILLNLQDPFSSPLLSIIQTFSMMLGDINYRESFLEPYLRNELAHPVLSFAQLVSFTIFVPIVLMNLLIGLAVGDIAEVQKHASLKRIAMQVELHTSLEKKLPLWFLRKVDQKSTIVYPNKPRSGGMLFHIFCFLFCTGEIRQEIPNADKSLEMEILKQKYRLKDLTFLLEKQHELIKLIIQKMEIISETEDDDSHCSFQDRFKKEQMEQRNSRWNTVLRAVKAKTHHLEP

| Compound | IC50 [1] [µM] | also measured |
| --- | --- | --- |
| Cn1cnc2ncn(Cc3nc([C@H]4[C@@H]5CN(c6cc(Cl)ccc6F)C[C@@H]54)no3)c(=O)c21 | 0.0125 |  |
| Cn1cnc2ncn(Cc3nc([C@H]4[C@@H]5CN(c6ccc(F)c(Cl)c6)C[C@@H]54)no3)c(=O)c21 | 0.00978 |  |
| Cn1cnc2ncn(Cc3nc([C@H]4[C@@H]5CN(c6cccc(SC(F)(F)F)c6)C[C@@H]54)no3)c(=O)c21 | 0.3 |  |
| CC(=O)c1cccc(N2C[C@@H]3[C@H](C2)[C@H]3c2noc(Cn3cnc4ncn(C)c4c3=O)n2)c1 | 0.295 |  |
| Cn1cnc2ncn(Cc3nc([C@H]4[C@@H]5CN(c6ccc7c(c6)CCC7)C[C@@H]54)no3)c(=O)c21 | 0.111 |  |
| Cn1cnc2ncn(Cc3nc([C@H]4[C@@H]5CN(c6cccc(C7CC7)c6)C[C@@H]54)no3)c(=O)c21 | 0.112 |  |
| O=c1c2cccnc2ncn1Cc1nc([C@H]2C[C@H](c3cccc(Cl)c3)C2)no1 | 0.049 |  |
| COc1ccc([C@H]2C[C@H](c3noc(Cn4cnc5nccc(C)c5c4=O)n3)C2)cc1 | 0.0387 |  |
| Cc1ccnc2ncn(Cc3nc([C@H]4[C@@H]5CN(c6ccccc6)C[C@@H]54)no3)c(=O)c12 | 0.039 |  |
| Cc1cncc2ncn(Cc3nc([C@H]4[C@@H]5CN(c6ccccc6)C[C@@H]54)no3)c(=O)c12 | 0.0146 |  |
| Cc1cncc2ncn(Cc3nc([C@H]4[C@@H]5CN(c6cccc(Cl)c6)C[C@@H]54)no3)c(=O)c12 | 0.0815 |  |
| Cn1cnc2ncn(Cc3nc([C@H]4[C@@H]5CN(c6ccc7c(cnn7C)c6)C[C@@H]54)no3)c(=O)c21 | 0.141 |  |
| Cn1cnc2ncn(Cc3nc([C@H]4[C@@H]5CN(c6ccc7ccncc7c6)C[C@@H]54)no3)c(=O)c21 | 0.0692 |  |
| Cn1cnc2ncn(Cc3nc([C@H]4[C@@H]5CN(c6ccc7ncccc7c6)C[C@@H]54)no3)c(=O)c21 | 0.166 |  |
| Cn1cnc2ncn(Cc3nc([C@@H]4CC[C@@H](c5ccccc5)C4)no3)c(=O)c21 | 0.149 |  |
| Cn1cnc2ncn(Cc3nc([C@H]4C[C@H](c5ccc(OC(F)F)cc5)C4)no3)c(=O)c21 | 0.142 |  |
| Cn1cnc2ncn(Cc3nc([C@H]4C[C@H](c5ccc(OC(F)(F)F)cc5)C4)no3)c(=O)c21 | 0.196 |  |
| 1-((3-((1R,5S,6r)-3-(3-fluorophenyl)-3-azabicyclo[3.1.0]hexan-6-yl)-1,2,4-oxadiazol-5-yl)methyl)-7-methyl-1,7-dihydro-6H-purin-6-one-2-d [Example Compound 89] | 0.0311 |  |
| 1-((3-((1r,3r)-3-((3-chlorophenyl)difluoromethyl) cyclobutyl)-1,2,4-oxadiazol-5-yl)methyl)-7-methyl-1,7-dihydro-6H-purin-6-one [Example Compound 81] | 0.143 |  |
| Cn1cnc2ncn(Cc3nc([C@@H]4[C@H]5Cc6ccccc6[C@H]54)no3)c(=O)c21 (stereo in doubt) [Example Compound 2, 7-methyl-1-[[3-[rac-(1R,1aR,6aS)-1,1a,6,6a-tetrahydrocyclopropa[a]inden-1-yl]-1,2,4-oxadiazol-5-yl]methyl]purin-6-one] |  | IC50 [2]: 0.277 µM |
| Cn1cnc2ncn(Cc3nc([C@H]4[C@@H]5Cc6ccccc6[C@@H]54)no3)c(=O)c21 (stereo in doubt) [Example Compound 3, 7-methyl-1-[[3-[rac-(1S,1aS,6aR)-1,1a,6,6a-tetrahydrocyclopropa[a]inden-1-yl]-1,2,4-oxadiazol-5-yl]methyl]purin-6-one] |  | IC50 [2]: 0.588 µM |
| Cc1ccnc2ncn(Cc3nc([C@@H]4[C@H]5Cc6ccccc6[C@H]54)no3)c(=O)c12 (stereo in doubt) [Example Compound 14, 5-methyl-3-[[3-[rac-(1S,1aS,6aR)-1,1a,6,6a-tetrahydrocyclopropa[a]inden-1-yl]-1,2,4-oxadiazol-5-yl]methyl]pyrido[2,3-d]pyrimidin-4-one] |  | IC50 [2]: 0.119 µM |
| Cc1ccnc2ncn(Cc3nc([C@H]4[C@@H]5Cc6ccccc6[C@@H]54)no3)c(=O)c12 (stereo in doubt) [Example Compound 15, 5-methyl-3-[[3-[rac-(1R,1 aR,6aS)-1,1a,6,6a-tetrahydrocyclopropa[a]inden-1-yl]-1,2,4-oxadiazol-5-yl]methyl]pyrido[2,3-d]pyrimidin-4-one] |  | IC50 [2]: 0.305 µM |
| Cc1cncc2ncn(Cc3nc([C@@H]4[C@H]5Cc6ccccc6[C@H]54)no3)c(=O)c12 (stereo in doubt) [Example Compound 19, 5-methyl-3-[[3-[rac-(1R,1 aR,6aS)-1,1a,6,6a-tetrahydrocyclopropa[a]inden-1-yl]-1,2,4-oxadiazol-5-yl]methyl]pyrido[3,4-d]pyrimidin-4-one] |  | IC50 [2]: 0.0299 µM |
| Cc1cncc2ncn(Cc3nc([C@H]4[C@@H]5Cc6ccccc6[C@@H]54)no3)c(=O)c12 (stereo in doubt) [Example Compound 20, 5-methyl-3-[[3-[rac-(1S,1aS,6aR)-1,1a,6,6a-tetrahydrocyclopropa[a]inden-1-yl]-1,2,4-oxadiazol-5-yl]methyl]pyrido[3,4-d]pyrimidin-4-one] |  | IC50 [2]: 0.0943 µM |
| Cn1cnc2ncn(Cc3nc([C@H]4[C@@H]5CN(c6ccc(OC(F)(F)F)cc6)C[C@@H]54)no3)c(=O)c21 [Example Compound 6, 7-methyl-1-[[3-[(1R,5S,6 r)-3-[4-(trifluoromethoxy)phenyl]-3-azabicyclo[3.1.0]hexan-6-yl]-1,2,4-oxadiazol-5-yl]methyl]purin-6-one] | 0.0424 |  |
| Cn1cnc2ncn(Cc3nc([C@H]4[C@@H]5CN(c6ccc(F)cc6)C[C@@H]54)no3)c(=O)c21 [Example Compound 7, 7-methyl-1-[[3-[(1R,5S,6 r)-3-(4-fluorophenyl)-3-azabicyclo[3.1.0]hexan-6-yl]-1,2,4-oxadiazol-5-yl]methyl]purin-6-one] | 0.031 |  |
| Cn1cnc2ncn(Cc3nc([C@H]4[C@@H]5CN(c6cccc(OC(F)F)c6)C[C@@H]54)no3)c(=O)c21 [Example Compound 8, 7-methyl-1-[[3-[(1R,5S,6 r)-3-[3-(difluoromethoxy)phenyl]-3-azabicyclo[3.1.0]hexan-6-yl]-1,2,4-oxadiazol-5-yl]methyl] purin-6-one] | 0.105 |  |
| Cc1cncc2ncn(Cc3nc([C@H]4C[C@](O)(c5ccc(Cl)cc5)C4)no3)c(=O)c12 [Example Compound 9, 3-((3-((1s,3s)-3-(4-chlorophenyl)-3-hydroxycyclobutyl)-1,2,4-oxadiazol-5-yl)methyl)-5-methylpyrido[3,4-d]pyrimidin-4(3H)-one] | 0.0309 |  |
| Cc1ccnc2ncn(Cc3nc([C@H]4C[C@](O)(c5ccc(Cl)cc5)C4)no3)c(=O)c12 [Example Compound 10, 3-((3-((1s,3s)-3-(4-chlorophenyl)-3-hydroxycyclobutyl)-1,2,4-oxadiazol-5-yl)methyl)-5-methylpyrido[2,3-d]pyrimidin-4(3H)-one] | 0.141 |  |

Continued, in another order:

| IC50 [1] [µM] | Compound | also measured |
| --- | --- | --- |
| 0.0773 | Cn1cnc2ncn(Cc3nc([C@H]4[C@@H]5CN(c6ccccc6Cl)C[C@@H]54)no3)c(=O)c21 |  |
| 0.0643 | Cn1cnc2ncn(Cc3nc([C@H]4[C@@H]5CN(c6ccc(Cl)c(Cl)c6)C[C@@H]54)no3)c(=O)c21 |  |
| 0.0205 | Cn1cnc2ncn(Cc3nc([C@H]4[C@@H]5CN(c6cc(F)cc(Cl)c6)C[C@@H]54)no3)c(=O)c21 |  |
| 0.0644 | Cn1cnc2ncn(Cc3nc([C@H]4[C@@H]5CN(c6cccc(C(F)F)c6)C[C@@H]54)no3)c(=O)c21 |  |
| 0.19 | O=c1c2ccncc2ncn1Cc1nc([C@H]2C[C@](F)(c3ccc(Cl)cc3)C2)no1 |  |
| 0.0202 | O=c1c2cccnc2ncn1Cc1nc([C@H]2C[C@](F)(c3ccc(Cl)cc3)C2)no1 |  |
| 0.281 | O=c1c2cccnc2ncn1Cc1nc([C@H]2C[C@](O)(c3cccc(Cl)c3)C2)no1 |  |
| 0.0122 | Cc1ccnc2ncn(Cc3nc([C@H]4C[C@H](c5cccc(Cl)c5)C4)no3)c(=O)c12 |  |
| 0.0578 | Cc1ccnc2ncn(Cc3nc([C@H]4C[C@](O)(c5cccc(Cl)c5)C4)no3)c(=O)c12 |  |
| 0.0513 | Cc1ccnc2ncn(Cc3nc([C@H]4C[C@H](c5ccc(OC(F)F)cc5)C4)no3)c(=O)c12 |  |
| 0.0638 | Cc1ccnc2ncn(Cc3nc([C@H]4C[C@H](c5ccc(OC(F)(F)F)cc5)C4)no3)c(=O)c12 |  |
| 0.169 | Cn1cnc2ncn(Cc3nc([C@H]4[C@@H]5CN(c6cnc7ccccc7c6)C[C@@H]54)no3)c(=O)c21 |  |
| 0.287 | Cn1cnc2ncn(Cc3nc([C@H]4[C@@H]5CN(c6cncc(Cl)c6)C[C@@H]54)no3)c(=O)c21 |  |
| 0.0111 | Cn1cnc2ncn(Cc3nc([C@H]4C[C@H](C(F)(F)c5cccc(F)c5)C4)no3)c(=O)c21 (stereo in doubt) [Example Compound 248, 1-[[3-[trans-3-[difluoro-(3-fluorophenyl)methyl]cyclobutyl]-1,2,4-oxadiazol-5-yl]methyl]-7-methyl-purin-6-one] | IC50 (read-out: hTRPA1 IC50 (90 min), compounds incubated 90 minutes at room temperature before cinnamaldehyde agonist): 0.0055 µM |
| 0.119 | Cn1cnc2ncn(Cc3nc([C@H]4[C@@H]5CN(c6cccc(OC(F)(F)F)c6)C[C@@H]54)no3)c(=O)c21 [Example Compound 4, 7-methyl-1-[[3-[(1R,5S,6r)-3-(3-trifluoromethoxy)phenyl-3-azabicyclo[3.1.0]hexan-6-yl]-1,2,4-oxadiazol-5-yl]methyl]purin-6-one] |  |
| 0.261 | O=c1c2cccnc2ncn1Cc1nc([C@H]2C[C@](O)(c3ccc(Cl)cc3)C2)no1 [Example Compound 11, 3-((3-((1s,3s)-3-(4-chlorophenyl)-3-hydroxycyclobutyl)-1,2,4-oxadiazol-5-yl)methyl)pyrido[2,3-d]pyrimidin-4(3H)-one] |  |
